Data reported in patent US20190264228A1, “TRANSFECTION METHOD COMPRISING NONVIRAL GENE DELIVERY SYSTEMS” (priority 2016, published 2019).
Read-outs that look alike come from different tables or passages of the source.

System: HeLa cells
Assay: Lipofection of HeLa cells with pCMV-luc / Rotifect Plus; transfection efficiency by luciferase reporter assay
Assay type: cell-based
Details: for Results in RLU (averages of three tests): inhibitors added 2 hours before and during transfection, luciferase assay after 24 hours; for Results in RLU/μg protein (averages): carried out analogously with Example 1
Protocol: The transfection efficiency was measured indirectly using a luciferase enzyme, which was coded by the inserted nucleic acid. This is a reporter gene system. These are established systems for detecting the transfection efficiency. Thus, the greater the amount of luciferase which can be detected in a culture vessel after lysis of the transfected cells, the greater the transfection efficiency. The amount of luciferase is detected by way of an enzyme substrate reaction in which a light quantum is released. These light quanta can be measured by suitable measurement devices known as luminometers. Since the number of light quanta measured is dependent in particular on the time interval in which the measurement took place, this light quantum amount is also denoted as “relative light units”. For comparative studies, the measurement conditions must therefore be identical. […] In both examples, for the treatment using the IKKe/TBK1 inhibitor and an inhibitor for a nucleic-acid-detecting toll-like receptor a significant improvement can be observed, and also cannot be explained merely by simple addition of the individual rates of increase for TKKe/TBK1 inhibitor and an inhibitor for a nucleic-acid-detecting toll-like receptor. This is thus clearly a synergistic effect. The following was used as general material: • 1. HeLa cells; ATTC CCL-2 • 2. Rotifect Plus, Carl Roth; Cat. No.: CL21.2 • 3. 48-well plates; Cellstar; Greiner BioOne; Cat. No.: 677180 • 4. DMEM; high-glucose; Biowest, w/stable glutamine/sodium pyruvate, Cat. No.: L103-500 • 5. Serum FBS Gold; PAN Biotech; Batch No. P130914: Cat. No.: P40-37500 • 6. pCMV-luc, Plasmid Factory, Cat. No.: PF461 • 7. Luciferase Assay Kit, Promega • 8. Dimethyl sulphoxide (DMSO for molecular biology), Fluka; Cat. No.: 41639 • 9. […] No.: 204001 • 10. […] Fluka; Cat. No.: C6628 • 11. […] TCI: Cat. No.: Q0056 The first embodiment, shown in FIG. 1, relates to lipofection of HeLa cells with a conventional commercial transfection reagent (Rotifect Plus), which were treated with the inhibitor BX795 for IKKe and TBK1 and with chloroquine as an inhibitor for TLR9 before and during the transfection. The lipofection of the HeLa cells was carried out over a 3-day period: […] HeLa cells were seeded into a 48-well plate. A cell count of 1*10^5 cells per well was plated in 250 μl complete DMEM medium (10% FCS). This was followed by incubation in a CO2 incubator (10%) for 24 hours. […] This was followed by incubation in a CO2 incubator (10%) for 24 hours. The efficiency of the transfection was determined using a luciferase assay kit. The assay was carried out in accordance with the manufacturer's instructions. The second embodiment, shown in FIG. 2, relates to lipofection of HeLa cells, which were treated with the inhibitor BX795 for IKKe and TBK1 and with quinacrine as an inhibitor for TLR9 before and during the transfection. The lipofection of the HeLa was carried out analogously with Example 1.

[1] = Example 1, FIG. 1, HeLa cells, BX795 0.5 μM, chloroquine 10 μM
[2] = Example 1, HeLa cells, BX795 0.5 μM, chloroquine 10 μM
[3] = Example 2, FIG. 2, HeLa cells, BX795 0.5 μM, quinacrine 2.5 μM
[4] = Example 2, HeLa cells, BX795 0.5 μM, quinacrine 2.5 μM
[5] = Homo sapiens, HeLa, Example 2, FIG. 2, HeLa cells, BX795 0.5 μM, quinacrine 2.5 μM, read-out: transfection efficiency normalised to transfection without inhibitors (ST = 100%)

O=C(NCCCNc1nc(Nc2cccc(NC(=O)N3CCCC3)c2)ncc1I)c1cccs1 [BX795]
Results in RLU (averages of three tests) [1]: 50282 RLU
increase over standard transfection [2]: 256%
Results in RLU/μg protein (averages) [3]: 27260 RLU/μg protein
increase over standard transfection [4]: 285%
activity at 0.5 µM (Homo sapiens, HeLa, Example 1, FIG. 1, HeLa cells, BX795 0.5 μM, chloroquine 10 μM, read-out: transfection efficiency normalised to transfection without inhibitors (ST = 100%)): 356%
activity at 0.5 µM [5]: 141%

CCN(CC)CCCC(C)Nc1ccnc2cc(Cl)ccc12 (stereo not drawn) [Chloroquine]
Results in RLU (averages of three tests) [1]: 46817 RLU
increase over standard transfection [2]: 19%
activity at 10 µM (Homo sapiens, HeLa, read-out: transfection efficiency normalised to transfection without inhibitors (ST = 100%)): 119%

CCN(CC)CCCC(C)Nc1c2ccc(Cl)cc2nc2ccc(OC)cc12 (stereo not drawn) [Quinacrine, quinacrine]
Results in RLU/μg protein (averages) [3]: 73924 RLU/μg protein
increase over standard transfection [4]: 41%
activity at 2.5 µM [5]: 385%
